Test results as given in patent publication US20250296909A1, “NOVEL BENZENE DERIVATIVE AND IMMUNOSUPPRESSION-RELATED USE THEREOF” (PROVIBIO CO., LTD., priority 2021, published 2025).
Like-named read-outs stand apart in the source and are kept apart here.

How the values were obtained:
spleen T cells = assay: T cell proliferation inhibition (CFSE, FACS), CD3/CD28-activated spleen T cells; type: cell-based, C57BL/6 mice; conditions: for inhibition at 10 µM / inhibition at 30 µM / inhibition at 50 µM: Mus musculus, T-cell, read-out: Proliferation inhibition rate (%)
Description: To investigate whether the compounds obtained in the Preparation Example have an inhibitory effect on T cell proliferation, the T cell proliferation was determined ex vivo using the fluorescent dye carboxyfluorescein diacetate succinimidyl ester (CFSE), which binds to intracellular molecules by covalent bonds.
Spleens were harvested and minced from C57BL/6 mice at 7 weeks of age, and then single cells were isolated using a strainer (40 μm pore size, SPL). Red blood cells were removed using ACK (Ammonium-Chloride-Potassium) lysis buffer to isolate only leukocytes. Subsequently, CD90.2 microbeads (130-121-278, Miltenyi Biotech.) were added, and subjected to react at 4° C. for 20 minutes. After that, spleen T cells were isolated using a MACS Magnetic Stand and LS column. The isolated T cells from the spleen were resuspended in 1 mL of Free media (RPMI-1640+200 U/mL penicillin+200 μg/mL streptomycin), followed by the addition of 0.3 μL of CFSE (10 mM), and reacted at 37° C. for 5 minutes. Subsequently, 10 mL of Free media was added to stop the reaction, and the cells were centrifuged to obtain the cell pellet. RPMI 1640 medium containing 10% FBS, 100 U/mL penicillin, and 100 μg/mL streptomycin was added to suspend the cells, and 2×10^5 cells per well were seeded into a 96-well plate and T cells were activated by treatment with CD3 and CD28 antibodies (each at 0.5 μg/mL).
The compound diluted in DMSO was treated in triplicate at concentrations of 10 μM, 30 μM, and 50 μM, respectively. After incubation at 37° C. with 5% CO2 for 3 days, cell proliferation levels were determined using a FACS Canto machine.
In the FACS graph of FIG. 1, the y-axis represents the quantity (number) of cells, while the x-axis represents the fluorescence level of the cells. […] This reduction in CFSE fluorescence results in a leftward shift along the x-axis in the graph. This indicates cell proliferation.
To collectively indicate the proliferation inhibition rate for the experimental results, the relative value of the proliferation amount after compound administration to the proliferation amount after CD3/CD28+DMSO administration was calculated. Subsequently, it was converted into an inhibition amount and expressed as a percentage, thereby determining the proliferation inhibition rate. Specifically, the proliferation inhibition rate was calculated as follows: […]

[1] = test system: T lymphocyte cell line Jurkat E6-1; assay: Cytotoxicity experiment (CCK-8, relative cell survival); type: cell-based; conditions: 24 hours, untreated cells = 100%
Description: To evaluate the cytotoxicity of the compound according to the present invention, the following experiment was conducted.
The T lymphocyte cell line Jurkat E6-1, purchased from the Korean Cell Line Bank, was cultured in RPMI-1640 medium comprising 10% FBS, 100 U/mL penicillin, and 100 μg/mL streptomycin. After culturing, the cells were harvested and centrifuged at 1,300 rpm for 5 minutes. After removal of the supernatant, the cells were resuspended in the same medium at a concentration of approximately 2.2×10^5 cells/mL, and 90 μL of the cell suspension was distributed per well into a 96-well plate (Costar 96 well cell culture plate, Corning). After treating 10 μL of each compound at different concentrations onto the respective wells of the plate, it was cultured for 24 hours at 37° C. in a 5% CO2 incubator. Subsequently, 10 μL of CCK-8 was added to each well, and it was cultured again for 2 hours at 37° C. in a 5% CO2 incubator. Absorbance was then measured at 450 nm to determine the relative cell survival rate compared to untreated cells, as shown in Table 4.
The values listed in Table 4 represent the relative cell survival rates in the groups treated with each compound at different concentrations, with the cell survival rate of untreated cells set as 100%.

[2] = Table 3 (compounds not belonging to Formula 1), 10 μM
[3] = Table 3 (compounds not belonging to Formula 1), 30 μM
[4] = Table 3 (compounds not belonging to Formula 1), 50 μM
[5] = 72 h, Table 2, 10 μM, 3 days, relative to CD3/CD28+DMSO
[6] = 72 h, Table 2, 30 μM, 3 days, relative to CD3/CD28+DMSO
[7] = 72 h, Table 2, 50 μM, 3 days, relative to CD3/CD28+DMSO
[8] = Table 2, 10 μM, 3 days, relative to CD3/CD28+DMSO
[9] = Table 2, 30 μM, 3 days, relative to CD3/CD28+DMSO
[10] = Table 2, 50 μM, 3 days, relative to CD3/CD28+DMSO

| Structure (SMILES) | inhibition at 10 µM (spleen T cells; [5]) | inhibition at 30 µM (spleen T cells; [6]) | inhibition at 50 µM (spleen T cells; [7]) | Relative cell survival rate (%) ([1]; 10 μM) | Relative cell survival rate (%) ([1]; 20 μM) | Relative cell survival rate (%) ([1]; 30 μM) | Relative cell survival rate (%) ([1]; 50 μM) | other results |
| --- | --- | --- | --- | --- | --- | --- | --- | --- |
| O=C(Nc1ccccc1)c1ccncc1Br [Compound 1] |  |  |  |  |  |  |  | inhibition at 10 µM (spleen T cells; [2]): 9%; inhibition at 30 µM (spleen T cells; [3]): 6%; inhibition at 50 µM (spleen T cells; [4]): 7% |
| Cc1ccccc1NC(=O)c1ccccc1Br [Compound 2] |  |  |  |  |  |  |  | inhibition at 10 µM (spleen T cells; [2]): 11%; inhibition at 30 µM (spleen T cells; [3]): 10%; inhibition at 50 µM (spleen T cells; [4]): 11% |
| Cc1ccccc1NC(=O)c1ccccc1F [Compound 3] |  |  |  |  |  |  |  | inhibition at 10 µM (spleen T cells; [2]): 9%; inhibition at 30 µM (spleen T cells; [3]): 15%; inhibition at 50 µM (spleen T cells; [4]): 18% |
| O=C(NCCCc1ccccc1)c1ccccc1Br [Compound 4] |  |  |  |  |  |  |  | inhibition at 10 µM (spleen T cells; [2]): 23%; inhibition at 30 µM (spleen T cells; [3]): 12%; inhibition at 50 µM (spleen T cells; [4]): 16% |
| O=C(Nc1ccccc1Br)c1ccccc1Br [Compound 9] |  |  |  |  |  |  |  | inhibition at 10 µM (spleen T cells; [2]): 0%; inhibition at 30 µM (spleen T cells; [3]): 0%; inhibition at 50 µM (spleen T cells; [4]): 0%; cell proliferation read by FACS (FIG. 2) (spleen T cells; even at a concentration of 50 μM): no inhibition of cell proliferation |
| CCCCCCCCCNC(=O)/C=C/c1ccccc1Br [Compound 10] | 15% | 72% | 92% | 91% | 88% | 85% | 83% | inhibition at 10 µM (spleen T cells; [2]): 5%; inhibition at 30 µM (spleen T cells; [3]): 9%; inhibition at 50 µM (spleen T cells; [4]): 3% |
| CCCCCCCCCCCCNC(=O)c1ncccc1Cl [Compound 11] | 10% | 62% | 99% |  |  |  |  |  |
| CCCCCCCCCCCCNC(=O)c1ccncc1Cl [Compound 12] | 5% | 38% | 99% | 100% | 92% | 83% | 79% |  |
| CCCCCCCCCCCCNC(=O)c1cccnc1Cl [Compound 13] | 10% | 48% | 100% | 95% | 71% | 70% | 57% |  |
| CCCCCCCCCCCCNC(=O)c1ccnc(C)c1 [Compound 15] | 10% | 35% | 90% |  |  |  |  |  |
| CCCCCCCCCCCCNC(=O)c1ccccc1C(=O)c1ccc(Cl)cc1 [Compound 16] | 0% | 100% | 100% | 121% | 101% | 92% | 85% |  |
| O=C(NCCCCCCCCCC1CO1)c1ccccc1Br (stereo not shown) [Compound 17] |  |  |  | 106% | 80% | 80% | 66% |  |
| CCCCCCCCCCCCNC(=O)c1cccc2ccccc12 [Compound 18] |  |  |  | 102% | 101% | 99% | 99% |  |
| CCCCCCCCCCCCNC(=O)c1nccc2ccccc12 [Compound 20] |  |  |  | 113% | 108% | 107% | 105% |  |
| CCCCCCCCCCCCNC(=O)c1ccc2cccc(O)c2n1 [Compound 21] |  |  |  | 101% | 106% | 109% | 124% |  |
| CCCCCCCCCCCCNC(=O)c1ccc2ccccc2n1 [Compound 22] |  |  |  | 42% | 42% | 39% | 36% |  |

| Structure (SMILES) | inhibition at 10 µM (spleen T cells; [5]) | inhibition at 30 µM (spleen T cells; [6]) | inhibition at 50 µM (spleen T cells; [7]) | Relative cell survival rate (%) ([1]; 10 μM) | Relative cell survival rate (%) ([1]; 20 μM) | Relative cell survival rate (%) ([1]; 30 μM) | Relative cell survival rate (%) ([1]; 50 μM) | other results |
| --- | --- | --- | --- | --- | --- | --- | --- | --- |
| CCCCCCCCCCCCNC(=O)c1cc2ccccc2cc1N [Compound 23] |  |  |  | 66% | 62% | 62% | 54% |  |
| CCCCCCCCCCCCNC(=O)c1cccnc1SC [Compound 24] |  |  |  | 71% | 68% | 61% | 54% |  |
| CCCCCCCCCCCCNC(=O)Cc1ccccc1 [Compound 25] | 20% | 90% | 99% | 95% | 90% | 87% | 84% |  |
| CCCCCCCCCCCCNC(=O)c1ccccc1-c1ccc(C)cc1 [Compound 27] | 62% | 96% | 100% | 109% | 77% | 71% | 63% |  |
| CCCCCCCCCCCCNC(=O)c1cc(Cl)cc(Cl)c1O [Compound 28] | 11% | 47% | 91% |  |  |  |  |  |
| CCCCCCCCCCCCNC(=O)c1cccnc1OC [Compound 32] | 12% | 42% | 54% |  |  |  |  |  |
| CCCCCCCCCCCC(=O)Nc1ccccc1Br [Compound 42] |  |  |  | 110% | 109% | 104% | 103% |  |
| CCCCCCCCCCC(CNCc1ccccc1Br)Cc1ccccc1Br (stereo not shown) [Compound 44] |  |  |  | 100% | 98% | 94% | 93% |  |
| CCCCCCCCCCCCNS(=O)(=O)c1ccccc1N [Compound 46] |  |  |  |  |  |  |  | Proliferation inhibition rate (%) (spleen T cells; [8]): 47%; Proliferation inhibition rate (%) (spleen T cells; [9]): 94%; Proliferation inhibition rate (%) (spleen T cells; [10]): 93% |
| CCCCCC(=O)Nc1ccc(CNC(=O)c2ccccc2Br)cc1 [Compound 47] |  |  |  | 98% | 97% | 97% | 96% |  |
| CCCCCC(=O)Nc1ccccc1CNC(=O)c1ccccc1Br [Compound 48] |  |  |  | 100% | 99% | 99% | 98% |  |
| CCCCCC(=O)Nc1cccc(CNC(=O)c2ccccc2Br)c1 [Compound 49] |  |  |  | 98% | 98% | 98% | 98% |  |
| CCCCCCCCCCCCNC(=O)c1ccc(Cl)cc1Cl [Compound 60] | 10% | 72% | 98% |  |  |  |  |  |
| CCCCCCCCCCCCNS(=O)(=O)c1cnccc1O [Compound 72] | 68% | 80% | 86% |  |  |  |  |  |
| CCCCCCCCCCCCNC(=O)c1ncccn1 [Compound 79] | 46% | 88% | 100% |  |  |  |  |  |
| CCCCCCCCCCCCNC(=O)c1cccnc1S [Compound 80] |  |  |  |  |  |  |  | Proliferation inhibition rate (%) (spleen T cells; [8]): 43%; Proliferation inhibition rate (%) (spleen T cells; [9]): 100%; Proliferation inhibition rate (%) (spleen T cells; [10]): 100% |
